# In US12209087B2, “AKT1 modulators” (Alterome Therapeutics, Inc., priority 2022, dated 2025):
# Biological target: T1, full length AKT E17K (Homo sapiens, UniProt P31749, E17K)
# T1 construct: host or cells: HEK-293 (ATCC CRL-1573)
# Assay: NanoBRET Target Engagement (TE) Assay
# Assay type: cell-based
# Conditions: competitive displacement of tracer in cells, read-out: AKT1 E17K IC50
# How it was run: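 Compound and tracer incubated 2 h before luminescence at donor 450 nm and acceptor 600 nm, with extracellular signal inhibited. EC50 by sigmoidal variable-slope regression.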
# T1 sequence (P31749 whole entry E17K): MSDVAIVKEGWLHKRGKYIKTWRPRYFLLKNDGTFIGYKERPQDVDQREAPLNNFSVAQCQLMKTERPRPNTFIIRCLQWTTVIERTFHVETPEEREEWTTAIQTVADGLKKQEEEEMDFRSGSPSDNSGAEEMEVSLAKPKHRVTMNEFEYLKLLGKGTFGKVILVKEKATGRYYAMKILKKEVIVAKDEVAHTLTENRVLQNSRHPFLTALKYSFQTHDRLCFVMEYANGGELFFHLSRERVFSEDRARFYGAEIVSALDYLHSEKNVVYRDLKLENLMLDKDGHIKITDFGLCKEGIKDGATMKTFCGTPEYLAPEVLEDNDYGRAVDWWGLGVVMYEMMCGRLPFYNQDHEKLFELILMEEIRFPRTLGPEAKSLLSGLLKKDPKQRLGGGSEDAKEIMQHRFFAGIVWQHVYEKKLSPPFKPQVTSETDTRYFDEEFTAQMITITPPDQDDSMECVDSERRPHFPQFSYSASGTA
row,Structure (SMILES),IC50 [µM]
1,"COc1ccccc1-c1ccc2nc(-c3cccnc3N)n(-c3ccc(CN4CCC(Nc5ccnc(C#N)n5)CC4)cc3)c2n1 [Example 422, 4-((1-(4-(2-(2-Aminopyridin-3-yl)-5-(2-methoxyphenyl)-3H-imidazo[4,5-b]pyridin-3-yl)benzyl)piperidin-4-yl)amino)pyrimidine-2-carbonitrile]",< 0.015
2,"CCOc1ccc(-c2ccc3nc(-c4cccnc4N)n(-c4ccc(CN5CCC(Nc6ccnc(C#N)n6)CC5)cc4)c3n2)nc1 [Example 560, 4-((1-(4-(2-(2-Aminopyridin-3-yl)-5-(5-ethoxypyridin-2-yl)-3H-imidazo[4,5-b]pyridin-3-yl)benzyl)piperidin-4-yl)amino)pyrimidine-2-carbonitrile]",< 0.015
3,"N#Cc1ncnc(N2CCN(Cc3ccc(-n4c(-c5cccnc5N)nc5ccc(-c6ccccc6)nc54)cc3)CC2)n1 [Example 328, 4-(4-(4-(2-(2-aminopyridin-3-yl)-5-phenyl-3H-imidazo[4,5-b]pyridin-3-yl)benzyl)piperazin-1-yl)-1,3,5-triazine-2-carbonitrile]",< 0.015
4,"N#Cc1nccc(NC2CCN(Cc3ccc(-n4c(-c5cccnc5N)nc5ccc(-c6ccc(C7CC7)cn6)nc54)cc3)CC2)n1 [Example 644, 4-((1-(4-(2-(2-Aminopyridin-3-yl)-5-(5-cyclopropylpyridin-2-yl)-3H-imidazo[4,5-b]pyridin-3-yl)benzyl)piperidin-4-yl)amino)pyrimidine-2-carbonitrile]",< 0.015
5,"Cc1oncc1-c1ccc2nc(-c3cccnc3N)n(-c3ccc(CN4CCC(Nc5ccnc(C#N)n5)CC4)cc3)c2n1 [Example 463, 4-((1-(4-(2-(2-Aminopyridin-3-yl)-5-(5-methylisoxazol-4-yl)-3H-imidazo[4,5-b]pyridin-3-yl)benzyl)piperidin-4-yl)amino)pyrimidine-2-carbonitrile]",< 0.015
6,"CSc1ccc2nc(-c3cccnc3N)n(-c3ccc(CN4CCC(Nc5ccnc(C#N)n5)CC4)cc3)c2n1 [Example 435, 4-((1-(4-(2-(2-Aminopyridin-3-yl)-5-(methylthio)-3H-imidazo[4,5-b]pyridin-3-yl)benzyl)piperidin-4-yl)amino)pyrimidine-2-carbonitrile]",< 0.015

# Same assay, conditions: competitive tracer displacement in living cells, read-out: AKT1 E17K IC50
row,Structure (SMILES),IC50 [µM]
1,"N#Cc1cc(C(=O)NCc2ccc(-n3c(-c4cccnc4N)nc4cccnc43)cc2)ccn1 [Example 122, N-(4-(2-(2-Aminopyridin-3-yl)-3H-imidazo[4,5-b]pyridin-3-yl)benzyl)-2-cyanoisonicotinamide]",0.6 to 10
2,"N#Cc1cnnc(N2CCN(Cc3ccc(-n4c(-c5cccnc5N)nc5ccc(-c6ccccc6)nc54)cc3)CC2)c1 [Example 53, 6-(4-(4-(2-(2-Aminopyridin-3-yl)-5-phenyl-3H-imidazo[4,5-b]pyridin-3-yl)benzyl)piperazin-1-yl)pyridazine-4-carbonitrile]",0.06 to 0.6
3,"N#Cc1ccnc(NC2CCN(Cc3ccc(-n4c(-c5cccnc5N)nc5ccc(N6CCOCC6)nc54)cc3)CC2)n1 [Example 240, 2-((1-(4-(2-(2-Aminopyridin-3-yl)-5-morpholino-3H-imidazo[4,5-b]pyridin-3-yl)benzyl)piperidin-4-yl)amino)pyrimidine-4-carbonitrile]",0.015 to 0.06
4,"N#Cc1ccc(OC2CCN(Cc3ccc(-n4c(-c5cccnc5N)nc5ccc(-c6ccccc6)nc54)cc3)CC2)nc1 [Example 2, 6-((1-(4-(2-(2-Aminopyridin-3-yl)-5-phenyl-3H-imidazo[4,5-b]pyridin-3-yl)benzyl)piperidin-4-yl)oxy)nicotinonitrile]",0.06 to 0.6
5,"N#Cc1ncccc1C(=O)N1CCN(Cc2ccc(-n3c(-c4cccnc4N)nc4cccnc43)cc2)CC1 [Example 153, 3-(4-(4-(2-(2-Aminopyridin-3-yl)-3H-imidazo[4,5-b]pyridin-3-yl)benzyl)piperazine-1-carbonyl)picolinonitrile]",0.6 to 10
